These are literature values, as cited in paper PMC3117075 (Journal of medicinal chemistry, 2011).

This data set addresses BRCT(BRCA1) (Homo sapiens, UniProt P38398). Conditions: previously reported value.

Sequence of BRCT(BRCA1) (P38398 1646-1859 limits assumed): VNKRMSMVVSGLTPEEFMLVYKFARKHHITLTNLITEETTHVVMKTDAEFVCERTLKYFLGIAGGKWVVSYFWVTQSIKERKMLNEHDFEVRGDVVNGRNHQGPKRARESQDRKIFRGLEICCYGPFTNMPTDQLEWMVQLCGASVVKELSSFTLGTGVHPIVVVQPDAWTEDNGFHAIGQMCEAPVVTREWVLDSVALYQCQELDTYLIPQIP

Regarding ISRSTpSPTFNKQT, the “ΔCp (change in heat capacity at constant pressure)” value is given as -340 ± 30 cal mol-1 K-1.
